US9113629B2, “4-amino-6-(4-substituted-phenyl)-picolinates and 6-amino-2-(4-substituted-phenyl)-pyrimidine-4-carboxylates and their use as herbicides” (DOW AGROSCIENCES LLC, priority 2013, dated 2015)

How the values were obtained:
[1] = Post-emergent Test III, herbicidal activity in wheat and barley; type: in vivo, Lolium multiflorum, Lolium rigidum; conditions: Lolium multiflorum, post-emergence, 504 h, read-out: Visual Growth Reduction (%) 21 Days After Application LOLSS; for pest or weed control at 35 g/ha: 35 g ai/ha; for pest or weed control at 70 g/ha: 70 g ai/ha; for pest or weed control at 140 g/ha: 140 g ai/ha
Outline: (§1)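 GR20, GR50, GR80 and GR90 come from probit analysis of visual injury scores (0 = none, 100 = complete kill) taken 21 d after treatment. Foliar application was by track sprayer delivering 187 L/ha at five rates, from high down to 1/16×, onto greenhouse plants at the 2–3 leaf stage, with solvent-blank controls.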

[2] = system: APESV: bentgrass (Apera spica-venti); assay: as above; type: in vivo; conditions: for pest or weed control at 35 g/ha / pest or weed control at 70 g/ha / pest or weed control at 140 g/ha: Apera spica-venti, post-emergence, 504 h, read-out: Visual Growth Reduction (%) 21 Days After Application APESV; for pest or weed control at 35 g/ha: 35 g ai/ha; for pest or weed control at 70 g/ha: 70 g ai/ha; for pest or weed control at 140 g/ha: 140 g ai/ha; for GR50 APESV / GR80 APESV: probit analysis, 21 days after application; for GR50 APESV: dose for growth reduction of 50 percent; for GR80 APESV: dose for growth reduction of 80 percent
Outline: as §1

[3] = system: HORSS: barley, including spring and winter (Hordeum vulgare); assay: as above; type: in vivo; conditions: for pest or weed control at 35 g/ha / pest or weed control at 70 g/ha / pest or weed control at 140 g/ha: Hordeum vulgare, post-emergence, 504 h, read-out: Visual Growth Reduction (%) 21 Days After Application HORSS; for pest or weed control at 35 g/ha: 35 g ai/ha; for pest or weed control at 70 g/ha: 70 g ai/ha; for pest or weed control at 140 g/ha: 140 g ai/ha; for GR20 HORSS: probit analysis, dose for growth reduction of 20 percent, 21 days after application, crop
Outline: as §1

[4] = system: KCHSC: kochia (Kochia scoparia); assay: as above; type: in vivo; conditions: for pest or weed control at 35 g/ha / pest or weed control at 70 g/ha / pest or weed control at 140 g/ha: Bassia scoparia, post-emergence, 504 h, read-out: Visual Growth Reduction (%) 21 Days After Application KCHSC; for pest or weed control at 35 g/ha: 35 g ai/ha; for pest or weed control at 70 g/ha: 70 g ai/ha; for pest or weed control at 140 g/ha: 140 g ai/ha; for GR50 KCHSC / GR80 KCHSC: probit analysis, 21 days after application; for GR50 KCHSC: dose for growth reduction of 50 percent; for GR80 KCHSC: dose for growth reduction of 80 percent
Outline: as §1

[5] = system: LOLSS: ryegrass including, Italian ryegrass (Lolium multiflorum), rigid ryegrass (Lolium rigidum), annual ryegrass (Lolium multiflorum subsp. Gaudini); assay: as above; type: in vivo; conditions: probit analysis, 21 days after application; for GR50 LOLSS: dose for growth reduction of 50 percent; for GR80 LOLSS: dose for growth reduction of 80 percent
Outline: as §1

[6] = system: MATSS: scented mayweed (Matricaria chamomilla), pineappleweed (Matricaria matricarioides); assay: as above; type: in vivo; conditions: for pest or weed control at 35 g/ha / pest or weed control at 70 g/ha / pest or weed control at 140 g/ha: Matricaria chamomilla, post-emergence, 504 h, read-out: Visual Growth Reduction (%) 21 Days After Application MATSS; for pest or weed control at 35 g/ha: 35 g ai/ha; for pest or weed control at 70 g/ha: 70 g ai/ha; for pest or weed control at 140 g/ha: 140 g ai/ha; for GR50 MATSS / GR80 MATSS: probit analysis, 21 days after application; for GR50 MATSS: dose for growth reduction of 50 percent; for GR80 MATSS: dose for growth reduction of 80 percent
Outline: as §1

[7] = system: SETVI: green foxtail (Setaria viridis); assay: as above; type: in vivo; conditions: for pest or weed control at 35 g/ha / pest or weed control at 70 g/ha / pest or weed control at 140 g/ha: Setaria viridis, post-emergence, 504 h, read-out: Visual Growth Reduction (%) 21 Days After Application SETVI; for pest or weed control at 35 g/ha: 35 g ai/ha; for pest or weed control at 70 g/ha: 70 g ai/ha; for pest or weed control at 140 g/ha: 140 g ai/ha; for GR50 SETVI / GR80 SETVI: probit analysis, 21 days after application; for GR50 SETVI: dose for growth reduction of 50 percent; for GR80 SETVI: dose for growth reduction of 80 percent
Outline: as §1

[8] = system: TRZSS: wheat, including spring and winter (Triticum aestivum); assay: as above; type: in vivo; conditions: for pest or weed control at 35 g/ha / pest or weed control at 70 g/ha / pest or weed control at 140 g/ha: Triticum aestivum, post-emergence, 504 h, read-out: Visual Growth Reduction (%) 21 Days After Application TRZSS; for pest or weed control at 35 g/ha: 35 g ai/ha; for pest or weed control at 70 g/ha: 70 g ai/ha; for pest or weed control at 140 g/ha: 140 g ai/ha; for GR20 TRZSS: probit analysis, dose for growth reduction of 20 percent, 21 days after application, crop
Outline: as §1

Compound	pest or weed control at 35 g/ha [1] [%]	pest or weed control at 70 g/ha [1] [%]	pest or weed control at 140 g/ha [1] [%]	pest or weed control at 35 g/ha [2] [%]	pest or weed control at 70 g/ha [2] [%]	pest or weed control at 140 g/ha [2] [%]	GR50 APESV [2] [g ai/ha]	GR80 APESV [2] [g ai/ha]	pest or weed control at 35 g/ha [3] [%]	pest or weed control at 70 g/ha [3] [%]	pest or weed control at 140 g/ha [3] [%]	GR20 HORSS [3] [g ai/ha]	pest or weed control at 35 g/ha [4] [%]	pest or weed control at 70 g/ha [4] [%]	pest or weed control at 140 g/ha [4] [%]	GR50 KCHSC [4] [g ai/ha]	GR80 KCHSC [4] [g ai/ha]	GR50 LOLSS [5] [g ai/ha]	GR80 LOLSS [5] [g ai/ha]	pest or weed control at 35 g/ha [6] [%]	other results
N#Cc1ccc(-c2nc(C(=O)O)c(Cl)c(N)c2F)cc1 [Compound 39]	30 to 44	45 to 59	60 to 74	30 to 44	45 to 59	60 to 74	70	>140	30 to 44	45 to 59	60 to 74	18	75 to 84	85 to 94	85 to 94	3	40	82	>140	95 to 100	pest or weed control at 70 g/ha [6]: 95 to 100%; pest or weed control at 140 g/ha [6]: 95 to 100%; GR50 MATSS [6]: 1 g ai/ha; GR80 MATSS [6]: 1 g ai/ha; pest or weed control at 35 g/ha [7]: 30 to 44%; pest or weed control at 70 g/ha [7]: 45 to 59%; pest or weed control at 140 g/ha [7]: 60 to 74%; GR50 SETVI [7]: 68 g ai/ha; GR80 SETVI [7]: >140 g ai/ha; pest or weed control at 35 g/ha [8]: 75 to 84%; pest or weed control at 70 g/ha [8]: 75 to 84%; pest or weed control at 140 g/ha [8]: 85 to 94%; GR20 TRZSS [8]: 1 g ai/ha
Nc1c(F)c(-c2ccc(OC(F)F)cc2)nc(C(=O)O)c1Cl [Compound 143]	0 to 29	30 to 44	45 to 59	60 to 74	60 to 74	75 to 84	31	129	60 to 74	75 to 84	85 to 94	2	30 to 44	30 to 44	45 to 59	>140	>140	116	>140	0 to 29	pest or weed control at 70 g/ha [6]: 60 to 74%; pest or weed control at 140 g/ha [6]: 60 to 74%; GR50 MATSS [6]: 67 g ai/ha; GR80 MATSS [6]: >140 g ai/ha; pest or weed control at 35 g/ha [7]: 45 to 59%; pest or weed control at 70 g/ha [7]: 45 to 59%; pest or weed control at 140 g/ha [7]: 60 to 74%; GR50 SETVI [7]: 52 g ai/ha; GR80 SETVI [7]: >140 g ai/ha; pest or weed control at 35 g/ha [8]: 60 to 74%; pest or weed control at 70 g/ha [8]: 75 to 84%; pest or weed control at 140 g/ha [8]: 75 to 84%; GR20 TRZSS [8]: 0 g ai/ha
